Experiments:
[1] = test system: fetal neural progenitor cells; assay: Cytometry (cell number); details: 1 μg/ml, 7 days; compared to general condition; Ps<0.0001; FIG. 2B
Experimental: The resulting fetal neural progenitor cells were compared with those cultured under a general culture condition. Regarding the general culture condition, 20 ng/ml of each of bFGF and EGF and an α-supplement (2.5 mg insulin, 25 mg transferrin, 0.03 μM sodium selenite, 36.5 mg L-glutamine, and 0.75 g L-glucose) were added to 500 ml of a mixed medium of DMEM/F12 (1:1) containing 0.5 ml of Primocin, which is an antibiotic formulation, and then, the fetal neural progenitor cells were cultured therein (M1), or under a condition in which the B27 supplement was further added (M2).
The fetal neural progenitor cells were seeded on a 6-well plate at a density of 2×10^5 cells/well, cultured for 7 days, and then subjected to cytometry.

[2] = test system: fetal neural progenitor cells; assay: Cell viability by MTT assay; format: cell-based, human; details: 7 days
From the text: Human neural progenitor cells were isolated from 14 week-old human fetuses. Before obtaining the fetus samples, informed consents that had been sufficiently described to parents in advance were received. In addition, the sample collection and use thereof for research were approved by the Institutional Review Board of the CHA Hospital. Ventral midbrain tissues in the brain of a […] human fetus were isolated according to the method disclosed in Storch et al. 2001; and Milosevic et al. 2006, 2007, and then, dissociated into a single cell suspension by treating the ventral midbrain tissues in a solution containing 0.1 mg/ml of papain and 100 μg/ml of DNase at a temperature of 37° C. for about 30 minutes. The single cell suspension was washed with phosphate buffered saline (PBS), and then, incubated in 50 μg/ml of antipain at a temperature of 37° C. for 30 minutes. The resulting neural progenitor cells were plated, in a monolayer, at a density of 30,000 cells/cm^2, onto a culture dish that was pre-coated with 15 μg/ml of poly-L-omithine and 4 μg/ml of fibronectin, and then, cultured. The cultured fetus neural progenitor cells were seeded on a 96-well plate at a density of 1×10^4 cells/well, cultured for 7 days, and treated with an MTT reagent. Then, by measuring optical density thereof (at a wavelength of 570 nm), the cell viability was analyzed.

[3] = test system: fetal neural progenitor cells; assay: Immunocytochemistry analysis using Ki67, Nestin and DAPI markers; format: cell-based, human; details: for expression of Ki67: in comparison with M1 and M2 (general culture condition), Ps<0.0001, FIG. 3B; for frequency of expression of both Ki67 and Nestin: in comparison with general culture condition, FIG. 3C
Experimental: (§1) 20 ng/ml of each of bFGF and EGF (available from Peprotech, R&D system) and 10 ml of a B27 supplement (available from GIBCO) were added to 500 ml of a mixed medium of DMEM/F12 (1:1) containing 0.5 ml of Primocin, which is an antibiotic formulation, and then, the fetal neural progenitor cells were cultured under a condition in which 1 μg/ml of DL-alpha-tocopherol acetate (M3), 1 μg/ml of (t)-alpha-tocopherol (M4), or a combination thereof (M5) was added. The resulting fetal neural progenitor cells were compared with those cultured under a general culture condition. Regarding the general culture condition, 20 ng/ml of each of bFGF and EGF and an α-supplement (2.5 mg insulin, 25 mg transferrin, 0.03 μM sodium selenite, 36.5 mg L-glutamine, and 0.75 g L-glucose) were added to 500 ml of a mixed medium of DMEM/F12 (1:1) containing 0.5 ml of Primocin, which is an antibiotic formulation, and then, the fetal neural progenitor cells were cultured therein (M1), or under a condition in which the B27 supplement was further added (M2).
The fetal neural progenitor cells were seeded on a 24-well plate at a density of 1×10^5 cells/well, cultured for 7 days, and then, subjected to immunocytochemistry analysis using Ki67, Nestin, and DAPI markers.

[4] = test system: fetal neural progenitor cells; assay: Immunocytochemistry analysis using GFAP, Tuj1 and DAPI markers; format: cell-based, human; details: for expression of Tuj1 / expression of GFAP: in comparison with M1 and M2 (general culture condition); for expression of Tuj1: Ps<0.02, FIG. 4C; for expression of GFAP: Ps<0.04, FIG. 4B; for frequency of expression of both GFAP and Tuj1: FIG. 4D
Experimental: as §1
The neural progenitor cells were seeded on a 24-well plate at a density of 1×10^5 cells/well, cultured for 7 days, and then, subjected to immunocytochemistry analysis using GFAP, Tuj1, and DAPI markers.

[5] = 1 μg/ml in medium, in comparison with general culture condition (M1, M2), Ps<0.02, FIG. 1
[6] = hypoxia (oxygen about 0.1% to about 10%) in comparison with normoxia, M3: P<0.009, M4: P<0.01, M5: P<0.001
[7] = 7 days, printed comparator: cells cultured under normoxia, Ps≤0.0001, FIG. 3D
[8] = 7 days, in comparison with general culture condition, Ps<0.0001
[9] = 7 days, in comparison with general culture condition, Ps<0.0001, FIG. 4E

SMILES	number of fetal neural progenitor cells [1]	cell viability (MTT, optical density 570 nm) [2, 5]	cell viability (MTT, optical density 570 nm) [2, 6]	expression of Ki67 ([3]; 7 days)	frequency of expression of both Ki67 and Nestin ([3]; 7 days, Ps≤0.0001)	expression of Dapi [3, 7]	expression of Dapi ([3]; hypoxia compared with normoxia, M4 P<0.006, M5 P<0.0001)	expression of Tuj1 ([4]; 7 days)	expression of GFAP ([4]; 7 days)	frequency of expression of both GFAP and Tuj1 [4, 8]	expression of Dapi [4, 9]	expression of Dapi ([4]; hypoxia in comparison with normoxia, M4: P<0.006)
Cc1c(C)c2c(c(C)c1O)CC[C@@](C)(CCC[C@H](C)CCC[C@H](C)CCCC(C)C)O2 [alpha-tocopherol, (t)-alpha-tocopherol]	significantly increased number of fetal neural progenitor cells	higher cell viability that is statistically significant	higher cell viability that is statistically significant	increased expression of Ki67 of significance	higher frequency of expression of both Ki67 and Nestin together in a statistically significant manner	statistically significant increase in the expression of Dapi	statistically significant increase in the expression of Dapi	reduced expression of Tuj1 in a statistically significant manner	reduced expression of GFAP in a statistically significant manner	lower frequency of expression of both GFAP and Tuj1 together	statistically significant increase in expression of Dapi	statistically significant increase in the expression of Dapi
CC(=O)Oc1c(C)c(C)c2c(c1C)CCC(C)(CCCC(C)CCCC(C)CCCC(C)C)O2 (racemic) [DL-alpha-tocopherol acetate]	significantly increased number of fetal neural progenitor cells	higher cell viability that is statistically significant	higher cell viability that is statistically significant	increased expression of Ki67 of significance	higher frequency of expression of both Ki67 and Nestin together in a statistically significant manner	statistically significant increase in the expression of Dapi		reduced expression of Tuj1 in a statistically significant manner	reduced expression of GFAP in a statistically significant manner	lower frequency of expression of both GFAP and Tuj1 together	statistically significant increase in expression of Dapi	

Source: patent publication US11351194B2, “Method for proliferating neural progenitor cells and composition for treating neurological diseases containing proliferated neural progenitor cells” (COLLEGE OF MEDICINE POCHON CHA UNIVERSITY INDUSTRY-ACADEMIC …, priority 2014, dated 2022)
